The results in this text go back to publication PMC5917077, “CD22-Binding Synthetic Sialosides Regulate B Lymphocyte Proliferation Through CD22 Ligand-Dependent and Independent Pathways, and Enhance Antibody Production in Mice” (Frontiers in Immunology, 2018).

The target of experiment [1] is T1, CD22 (Siglec-2) (Homo sapiens, UniProt P20273).
T1 construct: amino-terminal domains (domains 1–3) fused to Fc region of human IgG1 (CD22-Fc)
T1 sequence (P20273 20-326 limits assumed): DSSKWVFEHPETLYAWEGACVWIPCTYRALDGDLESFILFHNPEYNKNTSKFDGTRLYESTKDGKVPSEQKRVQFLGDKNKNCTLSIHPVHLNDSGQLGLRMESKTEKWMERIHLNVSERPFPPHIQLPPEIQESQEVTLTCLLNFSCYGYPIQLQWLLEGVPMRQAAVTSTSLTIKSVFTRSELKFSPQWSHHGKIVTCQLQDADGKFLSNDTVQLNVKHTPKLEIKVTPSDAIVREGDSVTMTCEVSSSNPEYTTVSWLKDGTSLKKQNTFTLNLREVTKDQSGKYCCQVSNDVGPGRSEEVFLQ
Kind of experiment: competition ELISA, human CD22-Fc binding to immobilized α1-acid glycoprotein.

Experiment [2] has as its target T2, CD22 (Siglec-2) (Mus musculus, UniProt P35329).
T2 construct: amino-terminal domains (domains 1–3) fused to Fc region of human IgG1 (CD22-Fc)
T2 sequence (P35329 22-347 limits assumed): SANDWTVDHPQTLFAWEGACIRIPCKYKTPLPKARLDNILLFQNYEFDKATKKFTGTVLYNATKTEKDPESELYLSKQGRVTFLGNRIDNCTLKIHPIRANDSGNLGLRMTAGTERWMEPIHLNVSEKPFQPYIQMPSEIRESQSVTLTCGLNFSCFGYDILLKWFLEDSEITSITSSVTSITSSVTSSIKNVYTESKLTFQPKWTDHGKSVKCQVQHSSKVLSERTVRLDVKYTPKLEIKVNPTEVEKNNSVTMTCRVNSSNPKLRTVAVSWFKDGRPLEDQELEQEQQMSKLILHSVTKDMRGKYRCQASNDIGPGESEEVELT
Nature of the experiment: competition ELISA, mouse CD22-Fc binding to immobilized biotinylated synthetic CD22 ligand.

The IC50 is the concentration at which inhibition is half-maximal. Read a low IC50 as higher potency. In the case of `O=C(Cc1ccc(-c2ccc(O)cc2)cc1)NC[C@@H](O)[C@@H](O)[C@@H]1OC(OCc2ccc(F)cc2)(C(=O)O)C[C@H](O)[C@H]1NC(=O)CO` (stereo partly shown) [GSC839], the IC50 at CD22 (Siglec-2) [1] and on CD22 (Siglec-2) [2] was approximately 100 nM in each case.

Take `O=C(Cc1ccc(-c2ccc(O)cc2)cc1)NC[C@@H](O)[C@@H](O)[C@@H]1O[C@@](OCc2ccccc2)(C(=O)O)C[C@H](O)[C@H]1NC(=O)CO` [GSC718]: the IC50 on CD22 (Siglec-2) [1] and at CD22 (Siglec-2) [2] was approximately 100 nM in each case.
